Data taken from article PMC6639853, “Deciphering Direct and Indirect Effects of Neurokinin B and GnRH in the Brain-Pituitary Axis of Tilapia” (Frontiers in Endocrinology, 2019).
Several values for one entry are separate records, joined by “and”; a condition that tells them apart may be missing. Equal entries are not always repeated. Where two headings read alike, the source gives them in different places. Starred links: 1 amine or outer side, 2 acyl side, 3 side chain; linkers in the order of their positions; H or OH if unused. Non-standard residues stand in square brackets, D forms with d. Residues, ends and D or L forms follow the SMILES beside them. NMeI = CC[C@H](C)[C@H](NC)C(=O)O; Suc = O=C(CCC(=O)[*:2])[*:1]; NMeV = CN[C@H](C(=O)O)C(C)C

Columns and labels:
huTAC3R (NK3R) = target: T1, huTAC3R (NK3R) (Homo sapiens, UniProt P29371); assay: CRE-/SRE-Luc receptor transactivation reporter assay in COS-7 cells, human TAC3R; assay type: cell-based; conditions: mean ± SEM
T1 construct: host or cells: COS-7
T1 sequence (P29371 1-465): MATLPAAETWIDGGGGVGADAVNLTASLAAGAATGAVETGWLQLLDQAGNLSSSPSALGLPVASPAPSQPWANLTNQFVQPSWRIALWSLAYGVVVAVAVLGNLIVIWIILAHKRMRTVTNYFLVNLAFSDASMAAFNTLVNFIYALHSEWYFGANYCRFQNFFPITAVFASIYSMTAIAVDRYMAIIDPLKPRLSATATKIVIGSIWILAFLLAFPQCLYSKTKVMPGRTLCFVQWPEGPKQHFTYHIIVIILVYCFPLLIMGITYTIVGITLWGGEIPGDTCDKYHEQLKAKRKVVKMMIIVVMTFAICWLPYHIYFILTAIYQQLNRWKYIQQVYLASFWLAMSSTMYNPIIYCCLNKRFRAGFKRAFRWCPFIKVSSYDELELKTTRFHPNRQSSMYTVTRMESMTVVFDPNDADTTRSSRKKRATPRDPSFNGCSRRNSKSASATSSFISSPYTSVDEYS
Source text: (§1) Receptor transactivation assays were generally performed according to Biran et al. ([10]). Briefly, in order to study the signaling pathways of the novel fish NKB and NKF analogs, the entire coding sequence of tiTac3ra (GenBank accession no. KF471674), tiTac3rb (GenBank accession no. KF471675), zfTac3ra (GenBank accession no. JF317292) and zfTac3rb (GenBank accession no. JF317293) were inserted into pcDNA3.1 (Invitrogen). To differentiate between the protein kinase A (PKA) and PKC signal transduction pathways, we used a sensitive luciferase (Luc) reporter gene assay. […] The cDNA clone for human TAC3R was obtained from the Missouri S&T cDNA Resource Center (www.cdna.org). Three micrograms of each construct together with three micrograms of a luciferase reporter plasmid were transiently co-transfected into COS-7 cells. […] EC50 values were calculated from dose response curves by means of computerized non-linear curve fitting on baseline-corrected (control) values using Prism version 6 software (GraphPad).

tiTac3ra = tiTac3ra (Oreochromis niloticus, UniProt A0A075QPN8); assay: cell-based; conditions: COS-7 cells, mean ± SEM
Source text: (§2) Receptor transactivation assays were generally performed according to Biran et al. ([10]). Briefly, in order to study the signaling pathways of the novel fish NKB and NKF analogs, the entire coding sequence of tiTac3ra (GenBank accession no. KF471674), tiTac3rb (GenBank accession no. KF471675), zfTac3ra (GenBank accession no. JF317292) and zfTac3rb (GenBank accession no. JF317293) were inserted into pcDNA3.1 (Invitrogen). To differentiate between the protein kinase A (PKA) and PKC signal transduction pathways, we used a sensitive luciferase (Luc) reporter gene assay. […] Three micrograms of each construct together with three micrograms of a luciferase reporter plasmid were transiently co-transfected into COS-7 cells. […] EC50 values were calculated from dose response curves by means of computerized non-linear curve fitting on baseline-corrected (control) values using Prism version 6 software (GraphPad).

tiTac3rb = tiTac3rb (Oreochromis niloticus, UniProt A0A075QUD7); assay: cell-based; conditions: COS-7 cells, mean ± SEM
Source text: as §2

zfTac3ra = target: T2, zfTac3ra (Danio rerio, UniProt H6A6A7); assay: CRE-/SRE-Luc receptor transactivation reporter assay in COS-7 cells, zebrafish Tac3ra; assay type: cell-based; conditions: mean ± SEM
T2 sequence (H6A6A7 1-399): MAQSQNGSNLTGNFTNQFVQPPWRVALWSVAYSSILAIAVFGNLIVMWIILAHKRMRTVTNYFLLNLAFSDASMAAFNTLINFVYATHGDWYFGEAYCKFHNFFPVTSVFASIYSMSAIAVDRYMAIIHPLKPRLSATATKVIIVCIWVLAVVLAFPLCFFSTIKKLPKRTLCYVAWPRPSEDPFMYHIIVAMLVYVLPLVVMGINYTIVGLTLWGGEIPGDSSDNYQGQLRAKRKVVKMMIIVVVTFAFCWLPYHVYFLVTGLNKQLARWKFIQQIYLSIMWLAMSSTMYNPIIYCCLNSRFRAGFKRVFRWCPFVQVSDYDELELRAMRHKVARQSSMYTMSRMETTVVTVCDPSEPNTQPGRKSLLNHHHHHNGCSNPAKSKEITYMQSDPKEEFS
Source text: as §1

zfTac3rb = target: T3, zfTac3rb (Danio rerio, UniProt F1R3V0); assay: CRE-/SRE-Luc receptor transactivation reporter assay in COS-7 cells, zebrafish Tac3rb; assay type: cell-based; conditions: mean ± SEM
T3 sequence (F1R3V0 1-395): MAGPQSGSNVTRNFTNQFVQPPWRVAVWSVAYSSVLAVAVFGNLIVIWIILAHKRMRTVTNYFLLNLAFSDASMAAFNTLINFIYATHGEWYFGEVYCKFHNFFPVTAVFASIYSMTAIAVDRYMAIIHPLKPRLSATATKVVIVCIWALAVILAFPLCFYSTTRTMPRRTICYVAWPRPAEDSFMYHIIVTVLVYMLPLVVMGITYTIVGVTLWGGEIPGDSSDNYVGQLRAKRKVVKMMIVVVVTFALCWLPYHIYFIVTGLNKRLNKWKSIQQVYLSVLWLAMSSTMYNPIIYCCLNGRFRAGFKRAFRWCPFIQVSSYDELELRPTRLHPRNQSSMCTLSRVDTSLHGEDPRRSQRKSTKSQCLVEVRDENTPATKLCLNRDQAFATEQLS
Source text: as §1

female tilapia = assay: In vivo effect on GH, FSH and LH plasma levels (ELISA) after IP injection; set-up: species or system Nile tilapia (O. niloticus); conditions: peptides/analogs 100 μg/kg BW, sGnRHa 10 μg/kg BW
Method: Adult female tilapia (BW 89.29 ± 32.93 g) were injected IP with saline, sGnRH analog ([…]; 10 μg/kg BW; [[…],[…]-Net]-mammalian GnRH; Bachem), tiNKB, tiNKF, or their analogs at 100 μg/kg BW (n = 8 fish per group). The fish were bled from the caudal blood vessels into heparinized syringes 1, 2, 4, 8, and 24 h after injection and blood was centrifuged (3,200 rpm for 30 min at 4°C) to obtain plasma samples, which were stored at -20°C until assayed. This time course is according to standard protocols used previously ([28], [29]) to test the effect of GnRH and other hypothalamic neuropeptides on circulating levels of LH, FSH, and GH in tilapia. Blood samples were collected from the caudal vasculature. Three independent experiments were carried out for the in vivo studies. Levels of LH, FSH, and GH in the plasma were measured by specific competitive ELISAs developed for tilapia ([30], [31]) based on recombinant ([…] or rtiGH. Primary antisera was produced against […]β, or rtGH ([31]), and […]βα ([28]) or rtGH was used for generating the standard curves.

[1] = SRE-Luc reporter (PKC/Ca2+), read-out: EC50 huTAC3R (NK3R) SRE
[2] = EC50 tiTac3ra CRE, CRE-Luc reporter (PKA/cAMP)
[3] = EC50 tiTac3ra SRE, SRE-Luc reporter (PKC/Ca2+)
[4] = EC50 tiTac3rb CRE, CRE-Luc reporter (PKA/cAMP)
[5] = EC50 tiTac3rb SRE, SRE-Luc reporter (PKC/Ca2+)
[6] = CRE-Luc reporter (PKA/cAMP), read-out: EC50 huTAC3R (NK3R) CRE
[7] = CRE-Luc reporter (PKA/cAMP), read-out: EC50 zfTac3ra CRE
[8] = SRE-Luc reporter (PKC/Ca2+), read-out: EC50 zfTac3ra SRE
[9] = CRE-Luc reporter (PKA/cAMP), read-out: EC50 zfTac3rb CRE
[10] = SRE-Luc reporter (PKC/Ca2+), read-out: EC50 zfTac3rb SRE

tiTac3rb, sequence (A0A075QUD7 1-361): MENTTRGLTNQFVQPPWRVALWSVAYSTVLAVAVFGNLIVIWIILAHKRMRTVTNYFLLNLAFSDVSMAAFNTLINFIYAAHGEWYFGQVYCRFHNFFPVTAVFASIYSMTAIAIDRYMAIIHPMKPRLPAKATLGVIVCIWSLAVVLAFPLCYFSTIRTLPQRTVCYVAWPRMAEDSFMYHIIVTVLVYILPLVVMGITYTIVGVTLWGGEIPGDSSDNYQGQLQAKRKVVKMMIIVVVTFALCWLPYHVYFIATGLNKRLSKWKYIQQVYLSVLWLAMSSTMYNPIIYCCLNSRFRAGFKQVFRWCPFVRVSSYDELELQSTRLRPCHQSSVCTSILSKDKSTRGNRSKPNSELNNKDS
tiTac3ra, sequence (A0A075QPN8 1-415): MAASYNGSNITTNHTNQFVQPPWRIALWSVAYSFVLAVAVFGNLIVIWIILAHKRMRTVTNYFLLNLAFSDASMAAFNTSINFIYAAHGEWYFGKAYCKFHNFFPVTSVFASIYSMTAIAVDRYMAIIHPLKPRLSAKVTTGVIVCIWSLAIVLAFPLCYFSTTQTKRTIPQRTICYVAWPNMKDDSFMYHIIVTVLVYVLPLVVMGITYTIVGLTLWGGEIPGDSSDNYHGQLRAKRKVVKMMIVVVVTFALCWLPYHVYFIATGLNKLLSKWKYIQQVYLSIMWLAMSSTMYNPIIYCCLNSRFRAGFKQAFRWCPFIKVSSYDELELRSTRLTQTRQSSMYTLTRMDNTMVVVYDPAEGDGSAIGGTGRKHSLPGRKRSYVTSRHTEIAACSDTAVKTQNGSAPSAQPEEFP

CC[C@H](C)[C@H](NC(=O)[C@H](CC(=O)O)NC(=O)CCC(=O)O)C(=O)N[C@@H](Cc1ccccc1)C(=O)N(C)[C@H](C(=O)NCC(=O)N[C@@H](CC(C)C)C(=O)N[C@@H](CCSC)C(N)=O)[C@@H](C)CC [tiNKB analog, Succ-Asp-Ile-Phe-N(Me)Ile-Gly-Leu-Met-NH2] (Suc-DIF[NMeI]GLM-NH2)
EC50 (huTAC3R (NK3R); [1]): 210.2 ± 1.18 nM | EC50 (tiTac3ra; [2]): 12.9 ± 0.36 nM | EC50 (tiTac3ra; [3]): 12.3 ± 0.29 nM | EC50 (tiTac3rb; [4]): 6.88 ± 0.29 nM | EC50 (tiTac3rb; [5]): 1.73 ± 0.46 nM

CC[C@H](C)[C@H](NC(=O)[C@H](CC(=O)O)NC(=O)[C@H](CC(N)=O)NC(=O)[C@@H](N)Cc1ccc(O)cc1)C(=O)N[C@@H](CC(=O)O)C(=O)N[C@@H](Cc1ccc(O)cc1)C(=O)N[C@@H](CC(=O)O)C(=O)N[C@@H](CO)C(=O)N[C@@H](Cc1ccccc1)C(=O)N[C@H](C(=O)NCC(=O)N[C@@H](CC(C)C)C(=O)N[C@@H](CCSC)C(N)=O)C(C)C [zfNKF] (H-YNDIDYDSFVGLM-NH2)
EC50 (huTAC3R (NK3R); [6]): 1.25 nM | EC50 (huTAC3R (NK3R); [1]): 0.18 ± 0.52 nM | EC50 (zfTac3ra; [7]): 5.47 ± 0.43 nM | EC50 (zfTac3ra; [8]): 0.51 ± 0.36 nM | EC50 (zfTac3rb; [9]): 0.032 nM | EC50 (zfTac3rb; [10]): 25.51 ± 0.23 nM

[D-Ala^6,Pro^9-Net]-mammalian GnRH [sGnRHa]
duration of increased plasma LH post-injection (female tilapia): up to 4 h

CC[C@H](C)[C@H](NC(=O)CNC(=O)[C@@H](NC(=O)[C@@H](N)CO)[C@@H](C)O)C(=O)N[C@@H](CC(N)=O)C(=O)N[C@@H](CCCNC(=N)N)C(=O)N[C@@H](CCC(=O)O)C(=O)N[C@@H](C)C(=O)N[C@@H](Cc1c[nH]cn1)C(=O)N[C@@H](CC(C)C)C(=O)N1CCC[C@H]1C(=O)N[C@@H](Cc1ccccc1)C(=O)N[C@@H](CCCNC(=N)N)C(=O)N1CCC[C@H]1C(=O)N[C@@H](CC(N)=O)C(=O)N[C@@H](CCSC)C(=O)N[C@@H](CC(N)=O)C(=O)N[C@@H](CC(=O)O)C(=O)N[C@H](C(=O)N[C@@H](Cc1ccccc1)C(=O)N[C@H](C(=O)NCC(=O)N[C@@H](CC(C)C)C(=O)N[C@@H](CC(C)C)C(=O)N[C@@H](CCC(=O)O)C(=O)N[C@@H](CCSC)C(=O)N[C@@H](Cc1c[nH]cn1)C(=O)N[C@@H](CC(=O)O)C(=O)N[C@H](C(=O)N[C@@H](Cc1ccccc1)C(=O)N[C@H](C(=O)NCC(=O)N[C@@H](CC(C)C)C(=O)N[C@@H](CCSC)C(N)=O)C(C)C)[C@@H](C)CC)C(C)C)[C@@H](C)CC [zfNKBb] (H-STGINREAHLPFRPNMNDIFVGLLEMHDIFVGLM-NH2)
EC50 (huTAC3R (NK3R); [6]): 17.4 ± 0.15 nM | EC50 (huTAC3R (NK3R); [1]): 18.7 ± 0.25 nM | EC50 (zfTac3ra; [7]): 0.94 nM and 0.948 nM | EC50 (zfTac3ra; [8]): 84.98 ± 0.31 nM | EC50 (zfTac3rb; [9]): 101.4 ± 0.37 nM | EC50 (zfTac3rb; [10]): 17.9 ± 0.43 nM

CC[C@H](C)[C@H](NC(=O)[C@H](CC(=O)O)NC(=O)[C@H](Cc1c[nH]cn1)NC(=O)[C@H](CCSC)NC(=O)[C@@H](N)CCC(=O)O)C(=O)N[C@@H](Cc1ccccc1)C(=O)N[C@H](C(=O)NCC(=O)N[C@@H](CC(C)C)C(=O)N[C@@H](CCSC)C(N)=O)C(C)C [zfNKBa] (H-EMHDIFVGLM-NH2)
EC50 (huTAC3R (NK3R); [6]): 1.71 ± 0.32 nM | EC50 (huTAC3R (NK3R); [1]): 0.11 ± 0.3 nM | EC50 (zfTac3ra; [7]): 26.5 ± 0.38 nM | EC50 (zfTac3ra; [8]): 139.6 ± 0.38 nM | EC50 (zfTac3rb; [9]): 41.37 ± 0.18 nM | EC50 (zfTac3rb; [10]): 1.1 ± 0.13 nM

CC[C@H](C)[C@H](NC(=O)[C@H](CC(=O)O)NC(=O)CCC(=O)O)C(=O)N[C@@H](Cc1ccccc1)C(=O)N(C)[C@H](C(=O)NCC(=O)N[C@@H](CC(C)C)C(=O)N[C@@H](CCSC)C(N)=O)C(C)C [zfNKBa analog, Succ-Asp-Ile-Phe-N(Me)Val-Gly-Leu-Met-NH2] (Suc-DIF[NMeV]GLM-NH2)
EC50 (huTAC3R (NK3R); [6]): 11.5 ± 0.4 nM | EC50 (huTAC3R (NK3R); [1]): 0.03 nM | EC50 (zfTac3ra; [7]): 873.2 ± 0.64 nM | EC50 (zfTac3ra; [8]): 7.88 ± 1.89 nM | EC50 (zfTac3rb; [9]): 0.781 ± 0.15 nM | EC50 (zfTac3rb; [10]): 5.79 ± 0.52 nM

CSCC[C@H](NC(=O)[C@H](CC(C)C)NC(=O)CNC(=O)[C@@H](NC(=O)[C@H](Cc1ccccc1)NC(=O)[C@H](CO)NC(=O)[C@H](CC(=O)O)NC(=O)[C@H](Cc1ccc(O)cc1)NC(=O)[C@H](CC(=O)O)NC(=O)[C@H](CC(C)C)NC(=O)[C@H](CC(=O)O)NC(=O)[C@H](CC(N)=O)NC(=O)[C@@H](N)Cc1ccc(O)cc1)C(C)C)C(N)=O [tiNKF] (H-YNDLDYDSFVGLM-NH2)
EC50 (huTAC3R (NK3R); [6]): 0.51 ± 0.24 nM | EC50 (huTAC3R (NK3R); [1]): 32.58 ± 0.05 nM | EC50 (tiTac3ra; [2]): 3.17 ± 0.18 nM | EC50 (tiTac3ra; [3]): 0.2 nM and 0.24 nM | EC50 (tiTac3rb; [4]): 2.13 ± 0.42 nM | EC50 (tiTac3rb; [5]): 0.46 ± 0.49 nM
